# Laboratory results taken from patent US12173317B2, “Use of histone modifiers to reprogram effector T cells” (Board of Regents, The University of Texas System, priority 2018, dated 2024).
# “Also recorded” adds a separate entry of the source.
# What was measured:
# [1] = system: tumor infiltrating lymphocytes (TILs)
# Description: The effect of IL-21 and Panobinostat in the clinical-relevant TIL expansion was assessed.
# To examine the possible de-differentiating effect of an HDAC inhibitor/IL-21 combination, TILs were untreated or pretreated with SAHA for 24 hours, then subjected to regular REP (irradiated PBMC and LCL cells, anti-CD3 and IL-2), or REP with SAHA/IL-21.
# The TILs were cultured from patient melanoma tumors. […] For studies with SAHA, SAHA was used at 1-5 μM.
# TILs were cultured in 50% AIM-V, 50% TIL complete medium which contains RPMI1640, 10% human AB serum, 10 mM HEPES, and 2-Mercaptoethanol. […] IL-21 (30 ng/ml) or HDACi SAHA (1-5 μM) or Panobinostat (1-3 nM) was added on day 0, 4 and 7 if included in the expansion. After 14 days, expanded cells were subjected to further analyses.
# [2] = system: histone H3 acetylation (AcH3); experiment: Western blot of H3 acetylation (AcH3) level; assay type: cell-based, human
# Excerpt: (§1) Western Blot analysis: Equal number of cells was lysed in 2×SDS loading buffer and loaded for immunoblot analysis with different antibodies (Cell Signaling). Anti-β-actin-HRP was from Santa Cruz Biotech. β-actin was used as the loading control for all immunoblot experiments. The results were quantified using ImageJ and normalized to the density of actin in the corresponding samples.
# [3] = system: CD28 promoter; experiment: Chromatin immunoprecipitation (ChIP) on the CD28 promoter; assay type: cell-based, human
# Description: Chromatin immunoprecipitation (ChIP): ChIP was performed using a ChIP Assay Kit according to the manufacturer's instructions (Millipore). Quantitative real-time PCR was performed with primers: CD28 promoter proximal STAT sites: forward […] (SEQ ID NO:10), reverse […] (SEQ ID NO: 11); distal STAT sites: forward […] (SEQ ID NO: 12), reverse […] (SEQ ID NO: 13); Rabbit IgG was used as a negative control.
# [4] = system: MART1 (M27)-specific effector CD8+ T cells; experiment: CD28 level on M27-specific effector CD8+ T cells by flow cytometry; assay type: cell-based, human; details: activation with M27-pulsed mature dendritic cells, 4 days
# Description: The present studies were performed to develop a method to reprogram or de-differentiate effector T cells that express CD45RO to central memory T cells that express CD62L and CD28 (FIG. 8). The effect of IL-21 and histone deacetylase inhibitor (HDACi) treatment on central memory markers CD28 and CD62L was evaluated. MART1 (M27)-specific effector CD8^+ T cells were untreated or pretreated with SAHA for 24 hours, followed by activation with M27-pulsed mature dendritic cells in the presence or absence of SAHA/IL-21 for 4 days.
# (§2) Flow Cytometry: Cells were stained with antibodies against CD8, CD28, CD62L or CD132. All FACS data were acquired via an LSR II flow cytometer and analyzed via FlowJo software (Tree Star, Inc.).
# To assess the effect of SAHA/IL-21 on CD28 expression in the context of a more physiologic, antigen-specific (in contrast to non-specific polyclonal) stimulation, this effect was evaluated on MART1 (M27)-specific effector/effector memory cells generated using peptide-pulsed autologous dendritic cells. MART1 (M27)-specific effector CD8^+ T cells (CD45RO^+, CD28-neg, CD62L-neg) were generated following iterative cycles of in vitro stimulation, tetramer-guided sorting of M27-specific CTL and expansion to uniformity (>95% MART-1-specific effector CTL). First, the effect of SAHA was evaluated on pSTAT3 binding to the CD28 promoter region. […]
# [5] = system: tumor antigen-specific CTL cells; experiment: Intracellular staining of IFN-γ and granzyme B; assay type: cell-based, human; details: restimulated with tumor cells
# Description: Intracellular Staining: The cells were restimulated with tumor cells for 16 hours and stained with antibody against CD8, followed by fixation and staining with antibodies against IFN-γ and granzyme B in permeabilization buffer. The cells were washed and resuspended in FACS buffer before analysis.
# [6] = system: CD132 (γC); experiment: CD132 surface level on expanded CTLs by flow cytometry; assay type: cell-based, human; details: CD8+ gate
# Excerpt: (§3) The expanded TILs/CTLs were also stained with antibodies against CD8 and CD132 and analyzed using the CD8^+ gate. […] In addition, the expanded CTLs were labeled with carboxyfluorescein succinimidyl ester (CFSE) and cultured with IL-2 or IL-15 for 2 days to check cell division. […] (FIG. 4B).
# as §2
# [7] = system: STAT1; experiment: Western blot of pSTAT1; assay type: cell-based, human; details: naïve CD8+ T cells, anti-CD3/CD28 beads, 30 minutes after activation
# Description: (§4) Polyclonal stimulation of CD8^+ T cells: Naïve CD8^+ T cells (CD8^+CD45RA^+CCR7^+) were flow cytometry-sorted or were isolated using EasySep™ Human Naïve CD8^+ T Cell Enrichment Kit (StemCell). In some experiments, total CD8^+ T cells were negatively selected using EasySep™ Human CD8^+ T Cell Enrichment Kit (StemCell). The purity of the naïve or total CD8^+ T cells was greater than 95% as determined by flow cytometry. CD8^+ T cells were cultured in RPMI 1640 with 10% fetal bovine serum and penicillin/streptomycin. CD8^+ T cells were activated using Dynabeads® Human T-Activator CD3/CD28 for T-Cell Expansion and Activation (Life Technologies) at a bead:cell ratio of 1:1 or together with 30 ng/mL human IL-21 (Peprotech). At the indicated time points, T cells were harvested and beads were removed using a magnet before downstream analysis.
# as §1
# [8] = system: tumor antigen-specific CTL lines; experiment: REP and mini-REP expansion fold of CTLs; assay type: cell-based, human; details: 2 weeks
# Description: The TILs were cultured from patient melanoma tumors. […] After 14 days, cells were used for further analyses. For studies with SAHA (FIG. 2), SAHA was used at […].
# Mini-REP was started scaling down from T25 flasks to 24-well plates accordingly. IL-21 and Panobinostat dose remained unchanged.
# To examine the clinical applicability of Panobinostat (Pano) in the setting of antigen-specific ACT, MART1 (M27)-specific effector/effector memory cells generated via the ETC approach were used and expanded in vitro by REP, as previously described (Yee, 2014). Cells were expanded with four different protocols (regular, adding IL-21 alone, adding Pano alone, or IL-21+Pano). […] It was posited that Panobinostat, like SAHA, enabled STAT3 and other transcription factors/cofactors to access binding sites and induce CD28 and CD62L expression.
# The TILs were cultured from patient melanoma tumors. […] After 14 days, cells were used for further analyses.
# [9] = system: target tumor cells; experiment: Chromium release assay (CRA); assay type: cell-based; details: effector:tumor 20:1, 4 hours, compared with regular expansion
# Description: (§5) Chromium Release Assay (CRA): Tumor cells were labeled with Cr51 before being incubated with antigen-specific CTLs at effector:tumor of 20:1 for 4 hours. The Cr51 amount in the supernatants was measured and the killing efficiency was calculated as % killing=100%×(sample average−average of negative control)/(average of positive control average of negative control).
# as §5, with “control−average” for “control average”
# [10] = system: M27-specific CTLs; experiment: CD28 expression in M27-specific CTLs generated with IL-21; assay type: cell-based, human
# Excerpt: (§6) IL-21 upregulates CD28 expression on activated human naïve CD8^+ T cells: CD28 is a pivotal costimulatory molecule for naïve T cell activation and memory T cell function. […] To investigate the molecular mechanisms of IL-21-induced CD28 expression, melanoma antigen recognized by T cells (MART1, M27)-specific CTLs were generated in the absence or presence of IL-21 as previously described (Li et al., 2005). […] To further corroborate the findings, sort-purified naïve human CD8^+ T cells (CD45RA^+CCR7^+) from healthy donors were activated with anti-CD3/CD28 beads in the absence or presence of IL-21 and surface CD28 expression was detected by flow cytometry.
# as §2
# Quantitative real-dime PCR: Total RNA was prepared using Qiagen RNA purification kit. cDNA. was made using Superscript reverse transcriptase and oligo(dT) primers (Life Technology), and gene expression was detected with a Bio-Rad iCycler Optical System using iQ SYBR green real-time PCR kit (Bio-Rad Laboratories, Inc.). The data were normalized to the reference gene RPL13A. RPL13A primer was purchased from Qiagen. Other primer pairs used were: CD28 forward: […] (SEQ ID NO:2), reverse: […] (SEQ ID NO: 3); CD62L forward: […] […]
# [11] = system: STAT3; experiment: Western blot of IL-21-induced pSTAT3; assay type: cell-based, human
# Description: as §4, §1
# [12] = system: STAT5; experiment: Western blot of pSTAT5; assay type: cell-based, human; details: naïve CD8+ T cells, anti-CD3/CD28 beads, 30 minutes after activation
# Description: as §4, §1
# [13] = system: expanded CTLs; experiment: CFSE proliferation of expanded CTLs with IL-2 or IL-15; assay type: cell-based, human; details: 2 days
# Description: as §3
# Central memory function associated with the IL-21/Pano-induced CD28^+CD62L^+ population was evaluated by the ability of these central memory-like T cells to undergo homeostatic proliferation in response to IL-7 and IL-15. ETC cells expanded with four different protocols (regular, adding IL-21 alone, adding Pano alone, or IL-21+Pano) were labeled with CFSE and cultured with IL-2, IL-7 or IL-15 for 2 days. […] Adding Panobinostat alone to REP increased cell proliferation in response to IL-15 but not to IL-2. […] Since IL-2 and IL-15 share CD132 (γC) and CD122 receptor subunits, CD132 and CD122 levels were assessed on the surface of these cells.
# [14] = system: human CD8+ T cells; experiment: CD28 expression in polyclonally activated human CD8+ T cells; assay type: cell-based
# Excerpt: as §6, §4, §2
# Quantitative real-dime PCR: Total RNA was prepared using Qiagen RNA purification kit. cDNA. was made using Superscript reverse transcriptase and oligo(dT) primers (Life Technology), and gene expression was detected with a Bio-Rad iCycler Optical System using iQ SYBR green real-time PCR kit (Bio-Rad Laboratories, Inc.). The data were normalized to the reference gene RPL13A. RPL13A primer was purchased from Qiagen. Other primer pairs used were: CD28 forward: […] (SEQ ID NO:2), reverse: […] (SEQ ID NO: 3); CD62L forward: […] (SEQ ID NO: 4), reverse: […] (SEQ ID NO: 5); Additional primers included lymphoid enhancer-binding factor 1 (LEFI) forward: […] (SEQ ID NO: 6), reverse: […] (SEQ ID NO: 7); transcription factor 1 (TCF1) forward: […] (SEQ ID NO: 8), reverse: CCTCGACCGCCTCTTCTTC (SEQ ID NO: 9).
# Human shRNA Knockdown: Total CD8^+ T cells were isolated and transfected with 5 μg negative control, STAT1 shRNA, or STAT3 shRNA (Dharmacon) using Amaxa human T cell Nucleofector Kit according to the manufacturer's instructions (Lonza). Transfected cells were rested for 1-2 days and live GFP^+ cells were sort-purified for immunoblot analysis or were stimulated for 7 days as previously described before further analysis.
compound,measurement,setting,value
Cc1[nH]c2ccccc2c1CCNCc1ccc(/C=C/C(=O)NO)cc1 [Panobinostat],cytotoxicity,[1]; screen of HDACi,minimal cytotoxicity
same,Panobinostat dose that increased AcH3 level,[2],≥ 0.5 nM
"O=C(CCCCCCC(=O)Nc1ccccc1)NO [SAHA, Suberoylanilide Hydroxamic Acid]",AcH3 level on the CD28 promoter,"[3]; M27-specific effector CD8+ T cells, SAHA 24 hours",significantly increased
same,IL-21-induced STAT3 (pSTAT3) binding to the CD28 promoter,"[3]; SAHA 24 hours, then IL-21 30 minutes",allowing IL-21-induced STAT3 to bind to the same DNA region; also recorded: increased; also recorded: allows IL-21-induced pSTAT3 to access the CD28 promoter
same,CD28 expression,[4],upregulated
same,cell death in REP culture,[1],caused dramatic cell death
same,viable cells at the end of REP,[1],few viable cells
same,AcH3 level by western blot,[2]; H3 and β-actin as loading controls,dose-dependent increase; also recorded: increases H3 acetylation in a dose-dependent manner
same,SAHA concentration that augmented AcH3 level,[2]; effector CD8+ T cells,≥ 1 µM
same,SAHA concentration that could augment AcH3 levels,"[2]; titration study, effector CD8+ T cells",≥ 1 µM
"IL-21: Human Interleukin 21, protein cytokine of 162 amino acids (SEQ ID NO:1)",enrichment of STAT3 at proximal and distal CD28 promoter regions,[3]; anti-CD3/CD28 and IL-21 relative to anti-CD3/CD28 alone,2-3 fold
same,CD28 expression,[4],slightly increased; also recorded: not observed
same,IFNγ and granzyme B expression,[5],augmented
same,CD132 (γ chain) surface expression,[6],upregulate; also recorded: significantly increased
same,STAT1 phosphorylation,[7],strong
same,yield of cell expansion,[8]; mini-REP,dramatically increased
same,expansion yield / expansion fold,[8]; regular REP,similar
same,tumor cell killing,[9],enhanced
same,CD28 mRNA level,[10],greatly augmented
same,CD28 expression,[10]; compared with cells generated in the absence of IL-21,significantly higher
same,"IL-21-induced STAT3 phosphorylation levels, naïve compared with effector CD8+ T-cells",[11],comparable
same,STAT3 phosphorylation,[11]; effector CD8+ T cells,induced STAT3 phosphorylation
same,STAT3 phosphorylation,"[11]; naïve CD8+ T cells, anti-CD3/CD28 beads, 30 minutes after activation",strong
same,STAT5 phosphorylation,[12],weak
same,proliferation in response to IL-2,[13],enhanced
same,proliferation in response to IL-15,[13],enhanced
same,IL-21-mediated enhancement of CD28 expression,[14]; CD8+ T cells from Job's syndrome patients,completely abrogated
same,IL-21-induced CD28 protein and mRNA upregulation diminished,[14]; STAT1 shRNA-transfected CD8+ T cells,not
same,IL-21-induced CD28 protein and mRNA upregulation,[14]; STAT3 shRNA-transfected CD8+ T cells,diminished
same,CD28 expression,[14]; activated TEMRA CD8+ T cells,minimally upregulated
same,CD28 mRNA level,"[14]; naïve CD8+ T cells, anti-CD3/CD28",greatly augmented
same,CD28 surface level expression,"[14]; naïve CD8+ T cells, anti-CD3/CD28 beads",significantly increased; also recorded: upregulates
same,expression of CD28 at protein and mRNA levels,[14]; total CD8+ T cells from healthy donors,increased
